Results as given in paper PMC10419279, “Biochemical and Functional Characterization of the Three Zebrafish Transglutaminases 2” (International Journal of Molecular Sciences, 2023).
Each block holds one compound with its values, some of them ahead of it. Square brackets hold non-standard residues; d marks the D form. Peptide text beside a SMILES is read from it. * marks the point of attachment. DON = [N-]=[N+]=CC(=O)CC[C@H](N)C(=O)O; Cbz = O=C(OCc1ccccc1)*

Legend:
Experiment in all cases: ELISA, pentylamine-biotin incorporation into coated N,N-dimethylcasein
Format in all cases: biochemical
[1] = biological target: T1, zTG2like (Danio rerio, UniProt A3KQ87); conditions: amine co-substrate with N,N-dimethylcasein; 5 mM CaCl2, 10 mM DTT, pH 8.0, 37 °C
T1 construct: gene tgm2l; full-length CDS in pET30a(+), His6-tagged (text: C-terminal His-tag; reverse primer keeps stop codon), E. coli BL21(DE3), Ni-NTA; primer-encoded N-terminus MASYNA, C-terminus AVPEI
T1 sequence (A3KQ87 1-692): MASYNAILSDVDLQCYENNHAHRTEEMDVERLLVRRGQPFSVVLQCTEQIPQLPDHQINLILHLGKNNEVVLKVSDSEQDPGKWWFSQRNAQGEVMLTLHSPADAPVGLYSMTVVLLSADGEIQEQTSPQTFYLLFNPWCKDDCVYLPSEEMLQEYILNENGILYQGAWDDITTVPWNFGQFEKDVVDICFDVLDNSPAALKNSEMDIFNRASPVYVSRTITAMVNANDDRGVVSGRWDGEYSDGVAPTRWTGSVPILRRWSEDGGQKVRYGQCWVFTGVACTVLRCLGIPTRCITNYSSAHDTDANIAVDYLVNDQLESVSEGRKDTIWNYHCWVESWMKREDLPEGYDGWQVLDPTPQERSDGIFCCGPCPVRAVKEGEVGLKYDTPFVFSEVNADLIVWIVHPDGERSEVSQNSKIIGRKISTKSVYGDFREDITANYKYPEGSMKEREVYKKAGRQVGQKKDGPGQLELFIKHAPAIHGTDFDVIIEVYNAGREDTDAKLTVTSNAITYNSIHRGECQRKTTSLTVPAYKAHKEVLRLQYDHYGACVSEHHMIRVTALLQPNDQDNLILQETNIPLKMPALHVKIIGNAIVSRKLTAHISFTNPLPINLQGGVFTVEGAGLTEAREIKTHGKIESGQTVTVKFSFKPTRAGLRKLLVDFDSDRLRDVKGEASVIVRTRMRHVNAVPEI
Text: ELISA, pentylamine-biotin incorporation into coated N,N-dimethylcasein on zTG2like | incorporate pentylamine-biotin into the substrate N,N-dimethylcasein in solution. All three zebrafish TGs2

[2] = biological target: T2, zTG2b (Danio rerio, UniProt A0ACM8QA61); conditions: amine co-substrate with N,N-dimethylcasein; 5 mM CaCl2, 10 mM DTT, pH 8.0, 37 °C
T2 construct: gene tgm2b; full-length CDS in pET30a(+), His6-tagged (text: C-terminal His-tag; reverse primer keeps stop codon), E. coli BL21(DE3), Ni-NTA; primer-encoded N-terminus MALDIG, C-terminus VIIGK
T2 sequence (A0ACM8QA61 1-679): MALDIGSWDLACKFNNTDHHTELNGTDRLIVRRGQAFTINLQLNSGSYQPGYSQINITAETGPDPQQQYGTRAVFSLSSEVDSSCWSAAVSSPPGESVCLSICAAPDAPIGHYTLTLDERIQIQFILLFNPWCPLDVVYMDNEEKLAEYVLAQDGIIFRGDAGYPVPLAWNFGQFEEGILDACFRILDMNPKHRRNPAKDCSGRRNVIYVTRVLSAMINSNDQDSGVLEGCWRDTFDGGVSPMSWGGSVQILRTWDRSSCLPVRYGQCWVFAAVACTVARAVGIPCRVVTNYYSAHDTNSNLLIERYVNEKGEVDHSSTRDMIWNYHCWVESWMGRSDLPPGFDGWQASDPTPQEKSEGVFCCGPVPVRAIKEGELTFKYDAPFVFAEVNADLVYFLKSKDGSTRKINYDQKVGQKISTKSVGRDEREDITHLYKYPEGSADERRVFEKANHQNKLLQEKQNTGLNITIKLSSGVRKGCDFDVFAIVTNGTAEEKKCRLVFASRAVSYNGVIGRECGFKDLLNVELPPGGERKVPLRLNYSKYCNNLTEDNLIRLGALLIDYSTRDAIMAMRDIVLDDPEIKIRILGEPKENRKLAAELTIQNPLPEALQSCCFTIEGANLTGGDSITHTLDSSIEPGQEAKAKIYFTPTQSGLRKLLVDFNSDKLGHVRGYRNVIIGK
Text: ELISA, pentylamine-biotin incorporation into coated N,N-dimethylcasein on zTG2b | incorporate pentylamine-biotin into the substrate N,N-dimethylcasein in solution. All three zebrafish TGs2

[3] = biological target: T3, hTG2 (Homo sapiens, UniProt P21980); conditions: amine co-substrate with N,N-dimethylcasein; 5 mM CaCl2, 10 mM DTT, pH 8.0, 37 °C
T3 construct: gene TGM2; recombinant hTG2 used as positive control; source and tag of purified protein not detailed; 77 kDa
T3 sequence (P21980 2-687): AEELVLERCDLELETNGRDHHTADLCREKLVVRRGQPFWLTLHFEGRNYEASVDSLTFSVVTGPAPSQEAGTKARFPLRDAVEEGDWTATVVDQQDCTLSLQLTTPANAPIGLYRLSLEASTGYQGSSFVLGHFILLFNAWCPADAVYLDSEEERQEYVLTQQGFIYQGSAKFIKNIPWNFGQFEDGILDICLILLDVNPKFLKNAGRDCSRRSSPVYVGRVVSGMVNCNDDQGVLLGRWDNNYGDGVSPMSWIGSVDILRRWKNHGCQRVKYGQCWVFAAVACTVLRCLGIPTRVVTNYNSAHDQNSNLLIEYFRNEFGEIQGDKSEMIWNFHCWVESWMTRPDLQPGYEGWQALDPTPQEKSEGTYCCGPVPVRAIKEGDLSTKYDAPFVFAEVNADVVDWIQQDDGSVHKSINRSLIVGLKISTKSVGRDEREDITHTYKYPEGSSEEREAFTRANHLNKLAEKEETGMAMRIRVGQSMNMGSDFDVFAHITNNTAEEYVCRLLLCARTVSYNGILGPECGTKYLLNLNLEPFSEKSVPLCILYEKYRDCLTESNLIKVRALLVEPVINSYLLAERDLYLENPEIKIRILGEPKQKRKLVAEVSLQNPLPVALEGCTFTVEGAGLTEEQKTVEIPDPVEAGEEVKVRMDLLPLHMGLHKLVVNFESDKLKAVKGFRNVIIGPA

[4] = biological target: T4, zTG2a (Danio rerio, UniProt Q66L63); conditions: amine co-substrate with N,N-dimethylcasein; 5 mM CaCl2, 10 mM DTT, pH 8.0, 37 °C
T4 construct: gene tgm2a; full-length CDS in pET30a(+), His6-tagged (text: C-terminal His-tag; reverse primer keeps stop codon), E. coli BL21(DE3), Ni-NTA; primer-encoded N-terminus MERVVE, C-terminus LVIYE
T4 sequence (Q66L63 1-679): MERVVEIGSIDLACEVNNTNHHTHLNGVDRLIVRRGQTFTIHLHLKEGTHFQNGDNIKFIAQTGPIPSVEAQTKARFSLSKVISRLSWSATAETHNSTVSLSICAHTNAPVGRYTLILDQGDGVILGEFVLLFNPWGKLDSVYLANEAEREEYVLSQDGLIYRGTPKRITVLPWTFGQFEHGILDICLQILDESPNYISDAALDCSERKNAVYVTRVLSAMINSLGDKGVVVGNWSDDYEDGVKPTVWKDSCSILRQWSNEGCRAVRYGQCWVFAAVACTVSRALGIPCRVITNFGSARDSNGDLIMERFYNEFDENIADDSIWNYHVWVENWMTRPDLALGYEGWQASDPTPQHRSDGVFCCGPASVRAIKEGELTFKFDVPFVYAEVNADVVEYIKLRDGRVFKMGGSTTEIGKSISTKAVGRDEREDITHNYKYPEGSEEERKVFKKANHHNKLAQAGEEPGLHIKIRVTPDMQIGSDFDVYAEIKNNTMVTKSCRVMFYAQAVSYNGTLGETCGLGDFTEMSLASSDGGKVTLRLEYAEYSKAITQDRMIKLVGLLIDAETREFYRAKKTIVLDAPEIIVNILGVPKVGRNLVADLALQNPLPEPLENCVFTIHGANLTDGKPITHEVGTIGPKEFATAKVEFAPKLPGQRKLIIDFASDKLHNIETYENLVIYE
Text: ELISA, pentylamine-biotin incorporation into coated N,N-dimethylcasein on zTG2a | incorporate pentylamine-biotin into the substrate N,N-dimethylcasein in solution. All three zebrafish TGs2

[5] = biological target: T3, hTG2; conditions: 50 ng enzyme, 0.2 mM pentylamine-biotin, 5 mM CaCl2, 10 mM DTT, pH 8.0, 37 °C, 1 h; GTP 100 µM (methods) or 100 mM (figure legend)
[6] = biological target: T4, zTG2a; conditions: 50 ng enzyme, 0.2 mM pentylamine-biotin, 5 mM CaCl2, 10 mM DTT, pH 8.0, 37 °C, 1 h; GTP 100 µM (methods) or 100 mM (figure legend)
[7] = biological target: T4, zTG2a
[8] = biological target: T2, zTG2b; conditions: 50 ng enzyme, 0.2 mM pentylamine-biotin, 5 mM CaCl2, 10 mM DTT, pH 8.0, 37 °C, 1 h; methods print inhibitor doses as mM
[9] = biological target: T1, zTG2like

SMILES: NCCCCCNC(=O)CCCC[C@@H]1SC[C@@H]2NC(=O)N[C@@H]21 [pentylamine-biotin]
ELISA, pentylamine-biotin incorporation into coated N,N-dimethylcasein [1]: incorporate pentylamine-biotin into the substrate N,N-dimethylcasein in solution. All three zebrafish TGs2
ELISA, pentylamine-biotin incorporation into coated N,N-dimethylcasein [2]: incorporate pentylamine-biotin into the substrate N,N-dimethylcasein in solution. All three zebrafish TGs2
ELISA, pentylamine-biotin incorporation into coated N,N-dimethylcasein [3]: as well as the human enzyme were able to mediate the transamidation reaction
ELISA, pentylamine-biotin incorporation into coated N,N-dimethylcasein [4]: incorporate pentylamine-biotin into the substrate N,N-dimethylcasein in solution. All three zebrafish TGs2

SMILES: Nc1nc2c(ncn2[C@@H]2O[C@H](COP(=O)(O)OP(=O)(O)OP(=O)(O)O)[C@@H](O)[C@H]2O)c(=O)[nH]1 [GTP]
% inhibition [5]: the inhibitory effect of GTP was only one third of that observed for the human enzyme
% inhibition [6]: zTG2a is the only zebrafish TG2 whose activity is affected by the presence of GTP

inhibition at 25 µM [7]: ~50%
% inhibition at 25 μM [8]: ~ 50%
inhibition at 25 µM [9]: ~50%
SMILES: COC(=O)[C@H](CC(C)C)NC(=O)[C@@H]1CCCN1C(=O)[C@@H](NC(=O)[C@H](CCC(=O)C=[N+]=[N-])NC(=O)OCc1ccccc1)C(C)C [ZDON] (Cbz-[DON]VPL-OMe)
